Values joined by “and” are separate entries in the source; they are usually repeats but may differ in a detail not shown here. Equal values may be shown once.
How the values were obtained:
[1] = Measurement of logP values by HPLC on reversed phase columns (EEC directive 79/831 Annex V.A8); assay type: physicochemical; conditions: HPLC; for Log P: pH 2.7, 0.1% formic acid in water / acetonitrile, single value
Phytophthora infestans = assay type: in vivo; conditions: 500 ppm of active ingredient; tomato, preventive; evaluated 7 days after inoculation; 100% = no disease
Plasmopara viticola = assay: Plasmopara test (grapevines) / preventive; assay type: in vivo; conditions: 100 ppm of active ingredient, evaluated 6 days after inoculation, 100% = no disease
Description: Plasmopara Test (Grapevines)/Preventive
Solvent: 24.5 parts by weight of acetone
24.5 parts by weight of dimethylacetamide
Emulsifier: 1 part by weight of alkylaryl polyglycol ether
To produce a suitable preparation of active compound, 1 part by weight of active compound is mixed with the stated amounts of solvent and emulsifier, and the concentrate is diluted with water to the desired concentration.
To test for preventive activity, young plants are sprayed with the preparation of active compound at the stated rate of application. After the spray coating has dried on, the plants are inoculated with an aqueous spore suspension of Plasmopara viticola and then remain for 1 day in an incubation cabinet at approximately 20° C. and a relative atmospheric humidity of 100%. The plant is subsequently placed for 4 days in a greenhouse at approximately 21° C. and a relative atmospheric humidity of approximately 90%. The plants are then misted and placed for 1 day in an incubation cabinet.
The test is evaluated 6 days after the inoculation. 0% means an efficacy which corresponds to that of the untreated control, while an efficacy of 100% means that no disease is observed.

Compound | Log P [I2] minor isomer ([1]; pH 2.7, 0.1% formic acid) | efficacy (Phytophthora infestans) [%] | efficacy (Plasmopara viticola) [%] | Log P (two values printed, isomers not assigned) ([1]; pH 2.7, 0.1% formic acid, two values without isomer tag) | Log P [I1] main isomer ([1]; pH 2.7, 0.1% formic acid) | Log P [1]
Cc1snnc1C(=NOCc1cccc(NC(=O)CSc2ccccc2)n1)c1ccccc1 (mixture of isomers) [Example 6] | 4.09 | 98 | 86 | – | – | –
Cc1snnc1C(=NOCc1csc(NC(=O)COc2ccccc2)n1)c1ccccc1 (mixture of isomers) [Example 7] | – | 100 | 88 | 3.71 and 3.83 | – | –
Cc1snnc1C(=NOCc1csc(NC(=O)COCc2ccccc2)n1)c1ccccc1 (mixture of isomers) [Example 28] | 3.85 | 100 | 93 | – | 3.96 | –
COc1ccccc1OCC(=O)Nc1nc(CON=C(c2ccccc2)c2nnsc2C)cs1 (mixture of isomers) [Example 57] | 3.78 | 100 | 72 | – | 3.89 | –
Cc1snnc1C(=NOCc1cccc(NC(=O)C(F)(F)Oc2ccccc2)n1)c1ccccc1 [Example 2] | – | 100 | 74 | – | – | 4.54
Cc1snnc1C(=NOCc1csc(NC(=O)COCCC(C)C)n1)c1ccccc1 [Example 3] | – | 95 | 84 | – | – | 4.36
Cc1snnc1C(=NOCc1csc(NC(=O)COc2ccccc2)n1)c1ccccc1 [Example 8] | – | 100 | 72 | – | – | 3.8
Cc1snnc1C(=NOCc1csc(NC(=O)C(C)Oc2ccccc2)n1)c1ccccc1 (stereo not drawn) [Example 15] | – | 100 | 93 | – | – | 4.04
Cc1snnc1C(=NOCc1csc(NC(=O)COC2CCCC2)n1)c1ccccc1 [Example 23] | – | 95 | 91 | – | – | 4.09
C=CCOC(C)C(=O)Nc1nc(CON=C(c2ccccc2)c2nnsc2C)cs1 (stereo not drawn) [Example 25] | – | 98 | 77 | – | – | 3.61
Cc1snnc1C(=NOCc1csc(NC(=O)COCc2ccccc2)n1)c1ccccc1 [Example 27] | – | 100 | 89 | – | – | 3.92
Cc1snnc1C(=NOCc1csc(NC(=O)C(C)OCC2CC2)n1)c1ccccc1 (stereo not drawn) [Example 39] | – | 97 | 91 | – | – | 3.83
C#CCOCC(=O)Nc1cccc(CON=C(c2ccccc2)c2nnsc2C)n1 [Example 48] | – | 100 | – | – | – | 3.29
Cc1snnc1C(=NOCc1csc(NC(=O)C(C)OCCC(C)C)n1)c1ccccc1 (stereo not drawn) [Example 49] | – | 98 | – | – | – | 4.68
Cc1snnc1C(=NOCc1cccc(NC(=O)C(C)OCCC(C)C)n1)c1ccccc1 (stereo not drawn) [Example 50] | – | 97 | – | – | – | 5.11
Cc1snnc1C(=NOCc1cccc(NC(=O)CSCCc2ccccc2)n1)c1ccccc1 [Example 52] | – | 97 | – | – | – | 4.53
Cc1snnc1C(=NOCc1cccc(NC(=O)COCC2CCC2)n1)c1ccccc1 [Example 54] | – | 97 | – | – | – | 4.54
Cc1snnc1C(=NOCc1csc(NC(=O)C(C)OC2CCCCC2)n1)c1ccccc1 (stereo not drawn) [Example 55] | – | 98 | – | – | – | 4.76
Cc1snnc1C(=NOCc1cccc(NC(=O)C(C)OC2CCCCC2)n1)c1ccccc1 (stereo not drawn) [Example 56] | – | 98 | – | – | – | 5.22

Compound | Log P [I2] minor isomer ([1]; pH 2.7, 0.1% formic acid) | efficacy (Phytophthora infestans) [%] | efficacy (Plasmopara viticola) [%] | Log P (two values printed, isomers not assigned) ([1]; pH 2.7, 0.1% formic acid, two values without isomer tag) | Log P [I1] main isomer ([1]; pH 2.7, 0.1% formic acid) | Log P [1]
Cc1snnc1C(=NOCc1cccc(NC(=O)COC2CCCCC2)n1)c1ccccc1 [Example 60] | – | 95 | – | – | – | 4.91
CCOC(C)(C)C(=O)Nc1nc(CON=C(c2ccccc2)c2nnsc2C)cs1 [Example 61] | – | 100 | – | – | – | 3.94
CCOC(C)(C)C(=O)Nc1cccc(CON=C(c2ccccc2)c2nnsc2C)n1 [Example 62] | – | 95 | – | – | – | 4.34
Cc1snnc1C(=NOCc1cccc(NC(=O)COCC(C)C)n1)c1ccccc1 [Example 64] | – | 98 | – | – | – | 4.44
Cc1snnc1C(=NOCc1cccc(NC(=O)COC(C)C)n1)c1ccccc1 [Example 66] | – | 93 | – | – | – | 3.94
Cc1snnc1C(=NOCc1csc(NC(=O)CSCCC(C)C)n1)c1ccccc1 [Example 67] | – | 95 | – | – | – | 4.41
Cc1snnc1C(=NOCc1csc(NC(=O)COCC2CCCCC2)n1)c1ccccc1 [Example 69] | – | 97 | – | – | – | 4.93
Cc1snnc1C(=NOCc1cccc(NC(=O)COCC2CCCCC2)n1)c1ccccc1 [Example 70] | – | 89 | – | – | – | 5.45
Cc1snnc1C(=NOCc1csc(NC(=O)COCC2CCCCO2)n1)c1ccccc1 (stereo not drawn) [Example 71] | – | 90 | – | – | – | 3.76
Cc1snnc1C(=NOCc1cccc(NC(=O)COCC2CCCCO2)n1)c1ccccc1 (stereo not drawn) [Example 72] | – | 75 | – | – | – | 3.92
Cc1snnc1C(=NOCc1csc(NC(=O)C(C)OCC2CCCCC2)n1)c1ccccc1 (stereo not drawn) [Example 73] | – | 100 | – | – | – | 5.35
Cc1snnc1C(=NOCc1cccc(NC(=O)C(C)OCC2CCCCC2)n1)c1ccccc1 (stereo not drawn) [Example 74] | – | 94 | – | – | – | 5.87
Cc1snnc1C(=NOCc1csc(NC(=O)C(C)OCC2CCCC2)n1)c1ccccc1 (stereo not drawn) [Example 75] | – | 100 | – | – | – | 4.9
Cc1snnc1C(=NOCc1cccc(NC(=O)C(C)OCC2CCCC2)n1)c1ccccc1 (stereo not drawn) [Example 76] | – | 97 | – | – | – | 5.39
Cc1snnc1C(=NOCc1csc(NC(=O)COCCC2CCCC2)n1)c1ccccc1 [Example 77] | – | 95 | – | – | – | 4.91
Cc1snnc1C(=NOCc1cccc(NC(=O)COCCC2CCCC2)n1)c1ccccc1 [Example 78] | – | 89 | – | – | – | 5.39
Cc1snnc1C(=NOCc1csc(NC(=O)COCCC2CCCCC2)n1)c1ccccc1 [Example 83] | – | 95 | – | – | – | 5.28
Cc1snnc1C(=NOCc1cccc(NC(=O)COCCC2CCCCC2)n1)c1ccccc1 [Example 84] | – | 75 | – | – | – | 5.81
Cc1snnc1C(=NOCc1csc(NC(=O)C(C)OCC(C)C)n1)c1ccccc1 (stereo not drawn) [Example 85] | – | 95 | 73 | – | – | –

Compound | Log P [I2] minor isomer ([1]; pH 2.7, 0.1% formic acid) | efficacy (Phytophthora infestans) [%] | efficacy (Plasmopara viticola) [%] | Log P (two values printed, isomers not assigned) ([1]; pH 2.7, 0.1% formic acid, two values without isomer tag) | Log P [I1] main isomer ([1]; pH 2.7, 0.1% formic acid) | Log P [1]
Cc1snnc1C(=NOCc1cccc(NC(=O)C(C)OCC(C)C)n1)c1ccccc1 (stereo not drawn) [Example 86] | – | 95 | – | – | – | 4.83
Cc1snnc1C(=NOCc1csc(NC(=O)CSC2CCCCC2)n1)c1ccccc1 [Example 87] | – | 97 | – | – | – | 4.46
Cc1snnc1C(=NOCc1cccc(NC(=O)CSC2CCCCC2)n1)c1ccccc1 [Example 88] | – | 97 | – | – | – | 4.87
C=CCSCC(=O)Nc1nc(CON=C(c2ccccc2)c2nnsc2C)cs1 [Example 91] | – | 95 | – | – | – | 3.52
C=CCSCC(=O)Nc1cccc(CON=C(c2ccccc2)c2nnsc2C)n1 [Example 92] | – | 90 | – | – | – | 3.79
Cc1snnc1C(=NOCc1cccc(NC(=O)C(C)OCc2ccccc2)n1)c1ccccc1 (stereo not drawn) [Example 94] | – | 95 | – | – | – | 4.58
Cc1snnc1C(=NOCc1csc(NC(=O)C(C)Oc2ccc(F)cc2)n1)c1ccccc1 (stereo not drawn) [Example 95] | – | 100 | – | – | – | 4.06
Cc1snnc1C(=NOCc1csc(NC(=O)C(C)SCc2ccccc2)n1)c1ccccc1 (stereo not drawn) [Example 98] | – | 98 | – | – | – | 4.26
Cc1snnc1C(=NOCc1cccc(NC(=O)C(C)SCc2ccccc2)n1)c1ccccc1 (stereo not drawn) [Example 99] | – | 100 | – | – | – | 4.58
Cc1snnc1C(=NOCc1csc(NC(=O)C(C)(C)Oc2ccccc2)n1)c1ccccc1 [Example 102] | – | 100 | – | – | – | 4.53
Cc1snnc1C(=NOCc1cccc(NC(=O)C(C)(C)Oc2ccccc2)n1)c1ccccc1 [Example 103] | – | 100 | – | – | – | 4.93
C#CCOC(CC)C(=O)Nc1nc(CON=C(c2ccccc2)c2nnsc2C)cs1 (stereo not drawn) [Example 104] | – | 98 | – | – | – | 3.61
C#CCOC(CC)C(=O)Nc1cccc(CON=C(c2ccccc2)c2nnsc2C)n1 (stereo not drawn) [Example 105] | – | 95 | – | – | – | 3.9
Cc1snnc1C(=NOCc1csc(NC(=O)CSC2CCCC2)n1)c1ccccc1 [Example 106] | – | 92 | – | – | – | 4.14
Cc1snnc1C(=NOCc1cccc(NC(=O)CSC2CCCC2)n1)c1ccccc1 [Example 107] | – | 92 | – | – | – | 4.51
Cc1snnc1C(=NOCc1csc(NC(=O)COCC2CCCC2)n1)c1ccccc1 [Example 108] | – | 100 | – | – | – | 4.53
Cc1snnc1C(=NOCc1cccc(NC(=O)COCC2CCCC2)n1)c1ccccc1 [Example 109] | – | 89 | – | – | – | 5.01
CC(=NOCC(=O)Nc1cccc(CON=C(c2ccccc2)c2nnsc2C)n1)c1ccccc1 [Example 112] | – | 95 | – | – | – | 4.51
